From US4226610A, “Herbicidal compounds, preparation thereof and herbicides containing the same” (Meiji Selka Kaisha, Ltd., priority 1978, dated 1980)

Test system: water hyacinth
Assay: Experiment 4 foliar application to water hyacinths with surfactants
Format: in vivo, Eichhornia crassipes Solms
Set-up: key to Killing index: killing index: 0 = no effect, 5 = death
Text: The detail of the assessment made in the following Experiments of the invention was as follows:
Four months after treatment, evaluation was made for inhibition of reproduction expressed in terms of symbols ranging from (-) to (+++) where (-) means no reproduction, namely complete suppression of reproduction, (±) remarkable suppression of reproduction; (+) considerable suppression of reproduction; (++) medium supprestion of reproduction; and (+++) no suppression of reproduction.
Water was placed in 20 cm.×30 cm. plastic vessels and a liquid fertilizer was added thereto.
Two water hyacinths were floated in each vessel. 0.1 or 0.2% of each of surfactants listed in Table 6 were added to 0.1 or 0.2% aqueous solutions of DL-AMPB choline. Each solution was sprayed by foliar application in an amount of 100 liter per 10 are. The killing index (0, no effect; 5, death) after 21 days and 3 months and the reproduction-inhibiting effect (-, no reproduction; +++, maximum reproduction) after 3 months were determined.

[1] = 0.1%, octylphenyl polyoxyethanol 0.2%, 3 months

SMILES: CP(=O)(O)CCC(N)C(=O)O (racemic) [DL-AMPB choline]
- Reproduction-inhibiting effect (0.1%, no surfactant, 3 months): +++
- Reproduction-inhibiting effect (0.1%, octylphenyl polyoxyethanol 0.1%, 3 months): +
- Killing index [1]: 4.5
- Reproduction-inhibiting effect [1]: ±
- Reproduction-inhibiting effect (0.1%, polyoxyethylene alkylaryl ether 0.1%, 3 months): ++
- Killing index (0.1%, polyoxyethylene alkylaryl ether 0.1%, 21 days): 2.5
- Reproduction-inhibiting effect (0.1%, polyoxyethylene alkylaryl ether 0.2%, 3 months): ±
- Reproduction-inhibiting effect (0.1%, polyoxyethylene dodecyl ether 0.1%, 3 months): ++
- Killing index (0.1%, polyoxyethylene dodecyl ether 0.1%, 21 days): 2.5
- Reproduction-inhibiting effect (0.1%, polyoxyethylene dodecyl ether 0.2%, 3 months): ±
- Reproduction-inhibiting effect (0.1%, polyoxyethylene sorbitan monooleate 0.1%, 3 months): ++
- Killing index (0.1%, polyoxyethylene sorbitan monooleate 0.1%, 21 days): 2.5
- Reproduction-inhibiting effect (0.1%, polyoxyethylene sorbitan monooleate 0.2%, 3 months): ±
- Reproduction-inhibiting effect (0.1%, polyoxyethylene sorbitan monostearate 0.1%, 3 months): ++
- Killing index (0.1%, polyoxyethylene sorbitan monostearate 0.1%, 21 days): 2.5
- Reproduction-inhibiting effect (0.1%, polyoxyethylene sorbitan monostearate 0.2%, 3 months): ±
- Killing index (0.2%, no surfactant, 3 months): 4.5
- Reproduction-inhibiting effect (0.2%, no surfactant, 3 months): ±
- Reproduction-inhibiting effect (0.2%, octylphenyl polyoxyethanol 0.1%, 3 months): -
- Reproduction-inhibiting effect (0.2%, octylphenyl polyoxyethanol 0.2%, 3 months): -
- Reproduction-inhibiting effect (0.2%, polyoxyethylene alkylaryl ether 0.1%, 3 months): -
- Killing index (0.2%, polyoxyethylene alkylaryl ether 0.1%, 21 days): 4.5
- Reproduction-inhibiting effect (0.2%, polyoxyethylene alkylaryl ether 0.2%, 3 months): -
- Reproduction-inhibiting effect (0.2%, polyoxyethylene dodecyl ether 0.1%, 3 months): -
- Killing index (0.2%, polyoxyethylene dodecyl ether 0.1%, 21 days): 4.5
- Reproduction-inhibiting effect (0.2%, polyoxyethylene dodecyl ether 0.2%, 3 months): -
- Reproduction-inhibiting effect (0.2%, polyoxyethylene sorbitan monooleate 0.1%, 3 months): -
- Killing index (0.2%, polyoxyethylene sorbitan monooleate 0.1%, 21 days): 4.5
- Reproduction-inhibiting effect (0.2%, polyoxyethylene sorbitan monooleate 0.2%, 3 months): -
- Reproduction-inhibiting effect (0.2%, polyoxyethylene sorbitan monostearate 0.1%, 3 months): -
- Killing index (0.2%, polyoxyethylene sorbitan monostearate 0.1%, 21 days): 4.5
- Reproduction-inhibiting effect (0.2%, polyoxyethylene sorbitan monostearate 0.2%, 3 months): -
